According to US12037354B2, “Cyclic pantetheine derivatives and uses thereof” (VectivBio Comet AG, priority 2018, dated 2024):

What was measured:
HepG2 cells = experiment: Glucose uptake Glo Assay, Example 821; type: cell-based
Method: The effect of compounds from the present disclosure on glucose uptake was determined in HepG2 cells (ATCC, HB-8065) using the glucose uptake Glo Assay Kit (Promega, 11343 according to manufacturer instructions. HepG2 cells were cultured in complete DMEM-glucose media (Gibco) supplemented with 10% FBS (37° C. incubator with 5% CO2) and seeded in 96-well plates at 30,000 cells/well. After removing the complete media, 100 μL/well of serum-free, high-glucose DMEM media were added to the wells and incubated overnight (37° C. incubator with 5% CO2). Media was then replaced with 100 μl/well DPBS containing 0.6°/o BSA and starved for 1 hour. Next, DPBS was removed and 45 μl/well of insulin (100 nM) or compounds (10 μM-50 μM) were added to the wells and incubated for 10 minutes (37° C. incubator with 5% CO2). Insulin and compounds were prepared in DPBS with 0.6% BSA with a final DMSO concentration of 0.1%. Next, 5 μl of 2DG (10 mM) in DPBS were added per well and allowed to incubate for 20 minutes followed by addition of 25 μl stop buffer. 37.5 μl of the mixture were then transferred to a new plate and 12.5 μl of Neutralization buffer added to the wells. After, 50 μl of 2DG6P detection Reagent were added and incubated for 0.5-1 hour at room temperature. Luminescence was measured with 0.3-1 second integration on a luminometer.

[1] = test system: Dermal fibroblasts (HDF3CGF system); experiment: BioMAP HDF3CGF system, Example 833; type: cell-based, human
Method: (§1) The BioMAP platform (BioMAP® Diversity PLUS Panel from Eurofins) is an in vitro phenotypic profiling technology that screened the compounds of the present disclosure (hereafter indicated as test agents) in human primary cell-based systems modelling complex tissue and disease states. The BioMAP assays were performed using the Eurofin's BioMAP Technology Platform as (see references 1 to 13 in the example 824 section) to model different diseases on primary cell-based model systems. These systems consisted of either single primary cell types or co-culture cells. Adherent cell types were cultured or co-cultured in 96 or 384-well plates until confluence followed by the addition of compounds prepared in DMSO at a final concentration of ≤0.1%. In each cell-based system, primary cells from heathy donors (2-6 donors) were pooled and treated with compounds at 1 and 10 μM dose 1 h prior to stimulation and remain in culture as indicated in
(§2) Example 825, Example 826, Example 827, Example 828, Example 829, Example 830, Example 831, Example 832, Example 833, Example 834, Example 835, Example 836 and Example 837. For on the BioMAP® Diversity PLUS® Panel, please see the following references, which are incorporate herein.
Following the general procedure as described in Example 824, Dermal fibroblasts (HDF3CGF system) were treated with IL-1β, TNFα and IFNγ, EGF, bFGF and PDGF-BB for 24 h in the presence or absence of the compounds to model fibrosis and chronic inflammation. Biomarkers read out were; MCP-1, VCAM-1, ICAM-1, Collagen-I, Collagen-III, IP-10, I-TAC, IL-8, MIG, EGFR, M-CSF, MMP-1, PAI-1, SRB, TIMP-1, TIMP-2 and proliferation was measured for 72 h.

[2] = test system: Peripheral blood mononuclear cells co-cultured with venular endothelial cells (Sag system); experiment: BioMAP Sag system, Example 828; type: cell-based, human
Method: as §1, §2
Following the general procedure as described in Example 824, Peripheral blood mononuclear cells were co-cultured with venular endothelial cells and treated with soluble antigen (T-cell ligands) (Sag system) in the presence or absence of compounds to model autoimmune and chronic inflammation. Biomarkers read out were; MCP-1, CD38, CD40, E-selectin, CD69, IL-8, MIG, PBMC cytotoxicity, Proliferation and SRB.

[3] = test system: Peripheral blood mononuclear cells co-cultured with B-cells (BT system); experiment: BioMAP BT system, Example 829; type: cell-based, human
Method: as §1, §2
Following the general procedure as described in Example 824, Peripheral blood mononuclear cells were co-cultured with B-cells (BT system) were treated with either α-IgM and TCR ligands for 72 h in the presence or absence of the compounds to model asthma, allergy, oncology and autoimmunity. Biomarkers read out were; B-cell proliferation, PBMC cytotoxicity, secreted IgG, sIL-17A, sIL-17F, sIL-2, sIL-6 and s-TNFα.

[4] = test system: Venular endothelial cells co-cultured with macrophages (Mphg system); experiment: BioMAP Mphg system, Example 836; type: cell-based, human
Method: as §1, §2
Following the general procedure as described in Example 824, Venular endothelial cells co-cultured with macrophages (Mphg system) and treated with TLR2 ligand for 24 h in the presence or absence of the compounds to mimic cardiovascular inflammation, restenosis and chronic inflammation. Biomarkers read out were; MCP-1, MIP-1α, VCAM-1, CD40, E-selectin, CD69, IL-8, IL-1α, M-CSF, sIL-10 and SRB.

[5] = test system: Keratinocytes co-cultured with dermal fibroblast (KF3CT system); experiment: BioMAP KF3CT system, Example 834; type: cell-based, human
Method: as §1, §2
Following the general procedure as described in Example 824, Keratinocytes were co-cultured with dermal fibroblast (KF3CT system) and treated with […], TNFα, IFNγ and TGFβ for 24 h in the presence or absence of the compounds to model psoriasis, dermatitis and skin biology. Biomarkers read out were; MCP-1, ICAM-1, IP-10, IL-8, MIG, IL-1α, MMP-9, PAI-1, SRB, TIMP-2, uPA.

[6] = test system: Bronchial epithelial cells co-cultured with dermal fibroblast (BF4T system); experiment: BioMAP BF4T system, Example 830; type: cell-based, human; conditions: for % increase in Eotaxin-3 / % increase in VCAM-1: 10 uM
Method: as §1, §2
Following the general procedure as described in Example 824, Bronchial epithelial cells were co-cultured with dermal fibroblast (BF4T system) and were treated with TNFα and IL-4 for 24 h in the presence or absence of the compounds to model asthma, allergy, fibrosis, lung inflammation. Biomarkers read out were; MCP-1, Eotaxin-3, VCAM-1, ICAM-1, CD90, IL-8, IL-1α, keratin 8/18, MMP-1, MMP-3, MMP-9, PAI-1, SRB, tPA, uPA.

[7] = Homo sapiens, 20 min, read-out: % increase in Glucose Uptake
[8] = procedure of Example 836, 10 uM

SMILES | activation at 50 µM (HepG2 cells; [7]) | % increase in Glucose Uptake (HepG2 cells; concentration tested 50 uM) | % decrease in EGFR ([1]; 1 uM) | % decrease in TIMP-1 ([1]; 1 uM) | % decrease in TIMP-2 ([1]; 1 uM) | % increase in 72 Hour Proliferation ([1]; 10 uM) | % decrease in CXCL8/IL-8 ([2]; Sag system, 10 uM) | % decrease in CXCL8/IL-8 ([2]; concentration tested 10 uM) | % decrease in sTNFα ([3]; BT system, 1 uM) | % increase in B-cell Proliferation ([3]; BT system, 10 uM) | % increase in sIL-6 ([3]; BT system, 10 uM) | % increase in B-cell Proliferation ([3]; concentration tested 10 uM) | % decrease in MCP-1 ([5]; 1 uM (Example 927)) | % decrease in MCP-1 ([5]; 1 uM (Example 928)) | % increase in Eotaxin-3 [6] | % increase in VCAM-1 [6] | % decrease in sTNFα ([3]; BT system, 10 uM) | % decrease in α-SMA ([4]; procedure of Example 836, 1 uM) | % decrease in α-SMA [4, 8] | % increase in MMP-1 [4, 8] | other results
C/C=C/C(=O)SCCNC(=O)CCNC(=O)[C@@H]1OP(=O)(O)OCC1(C)C [Compound 36] | ≥ 30% | ≥30% | ≥10% | ≥10% | ≥20% | ≥10% | ≥10% | ≥10% | ≥10% | ≥20% | ≥10% | ≥20% |  |  |  |  |  |  |  |  | % decrease in MMP-1 ([1]; 10 uM): ≥10%; % increase in MIP-1α ([4]; Mphg system, 10 uM): ≥10%
CC(=O)CC(=O)SCCNC(=O)CCNC(=O)[C@@H]1OP(=O)(O)OCC1(C)C [Compound 42] |  |  |  |  |  |  |  |  |  |  |  |  | ≥10% | ≥10% | ≥10% | ≥10% | ≥20% | ≥10% |  |  | activation at 10 µM (HepG2 cells; Homo sapiens, 20 min, 10 uM, read-out: % increase in Glucose Uptake): ≥ 30%; % increase in Glucose Uptake (HepG2 cells; concentration tested 10 uM): ≥30%; % decrease in TIMP-2 ([1]; 10 uM): ≥10%; % increase in CD69 ([2]; Sag system, 10 uM): ≥10%; % increase in MCP-1 ([2]; Sag system, 10 uM): ≥10%; % increase in CD69 ([2]; concentration tested 10 uM): ≥10%; % decrease in B-cell proliferation ([3]; BT system, 10 uM): ≥10%; % decrease in sIL-17 ([3]; BT system, 10 uM): ≥20%; % decrease in B-cell proliferation ([3]; concentration tested 10 uM): ≥10%; % decrease in sIL-17 ([3]; concentration tested 10 uM): ≥20%; % increase in MMP-1 ([4]; procedure of Example 836, 1 uM): ≥10%
CCOP1(=O)OCC(C)(C)[C@H](C(=O)NCCC(=O)NCCSC(=O)CCC(=O)O)O1 (stereo partly shown) [Compound 61] | ≥ 10% | ≥10% |  |  |  |  |  |  |  | ≥10% | ≥10% | ≥10% | ≥20% | ≥20% | ≥10% |  |  |  | ≥10% | ≥10% | % decrease in TIMP-1 ([1]; 10 uM): ≥10%; % increase in PBMC Cytotoxicity ([2]; Sag system, 10 uM): ≥10%; % increase in PBMC Cytotoxicity ([2]; concentration tested 10 uM): ≥10%
COC(=O)CCC(=O)SCCNC(=O)CCNC(=O)[C@@H]1OC(=O)OCC1(C)C [Compound 451] | ≥ 20% | ≥20% |  | ≥10% |  |  | ≥10% | ≥10% | ≥20% |  |  |  | ≥10% | ≥10% | ≥10% | ≥10% |  | ≥10% |  | ≥10% | % decrease in Collagen III ([1]; 1 uM): ≥10%; % increase in B-cell Proliferation ([3]; BT system, 1 uM): ≥10%; % increase in B-cell Proliferation ([3]; concentration tested 1 uM): ≥10%; % decrease in VCAM-1 [4, 8]: ≥10%
COC(=O)CCC(=O)SCCNC(=O)CCNC(=O)[C@@H]1OC(C)(CC(=O)OC)OCC1(C)C (stereo partly shown) [Compound 633] |  |  | ≥10% | ≥20% | ≥10% | ≥10% |  |  |  | ≥20% | ≥20% | ≥20% | ≥10% | ≥10% | ≥10% |  | ≥10% |  | ≥10% |  | % increase in PAI-I ([1]; 10 uM): ≥10%; % decrease in MMP-9 ([6]; 1 uM): ≥10%; % increase in sIL-2 ([3]; BT system, 10 uM): ≥20%; % decrease in VCAM-1 ([4]; procedure of Example 836, 1 uM): ≥10%
